Experimental data published in patent US5061794A, “Cephalosporin derivatives, and antibacterial agents” (priority 1986, dated 1991).
Read-outs that look alike come from different tables or passages of the source.

Experiments:
E. coli CSH(RE45) = assay: microbe, parasite or virus in culture; assay type: cell-based; conditions: 10^6 CFU/ml; for Minimum Inhibitory Concentration (MIC): *E. coli CSH(RE45), lactamase-producing strain; for MIC: Escherichia coli, 16 h, read-out: Minimum Inhibitory Concentration (MIC), *E. coli CSH(RE45), lactamase-producing strain
Procedure, shortened: (§1)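 MICs (μg/ml) were read after 16 hours at 37°C. Test strains, grown overnight in Mueller Hinton broth, were spotted at 10^6 CFU/ml onto Mueller Hinton agar plates containing the compounds at a range of concentrations.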

E. coli CSH2 (RK1) = assay: microbe, parasite or virus in culture; assay type: cell-based; conditions: 10^6 CFU/ml; for Minimum Inhibitory Concentration (MIC): *E. coli CSH2 (RK1), lactamase-producing strain; for MIC: Escherichia coli, 16 h, read-out: Minimum Inhibitory Concentration (MIC), *E. coli CSH2 (RK1), lactamase-producing strain
Procedure, shortened: as §1

Ps. cepacia 23 = assay: in vitro antibacterial activity, agar plate dilution method (MIC); assay type: cell-based, Pseudomonas cepacia; conditions: read-out: Minimum Inhibitory Concentration (MIC)
Procedure, shortened: as §1

K. oxytoca GN10650 = assay: as above; assay type: cell-based; conditions: 10^6 CFU/ml; for MIC: Klebsiella oxytoca, GN10650, 16 h, read-out: Minimum Inhibitory Concentration (MIC), *K. oxytoca GN10650, lactamase-producing strain
Procedure, shortened: as §1

S. marcescens IAM 1184 = assay: as above; assay type: cell-based; conditions: for MIC: Serratia marcescens, IAM1184, 16 h, read-out: Minimum Inhibitory Concentration (MIC)
Procedure, shortened: as §1

K. pneumoniae No. 42 = assay: as above; assay type: cell-based; conditions: 10^6 CFU/ml; for MIC: Klebsiella pneumoniae, NO.42, 16 h, read-out: Minimum Inhibitory Concentration (MIC), *K. pneumoniae No. 42, lactamase-producing strain
Procedure, shortened: as §1

E. coli NIHJ JC2 = assay: as above; assay type: cell-based; conditions: Escherichia coli, NIHJJC2, 16 h, read-out: Minimum Inhibitory Concentration (MIC), E. coli NIHJ JC2, 10^6 CFU/ml, 37° C.
Procedure, shortened: as §1

E. cloacae Nek 39 = assay: as above; assay type: cell-based; conditions: 10^6 CFU/ml; for MIC: Enterobacter cloacae, NEK39, 16 h, read-out: Minimum Inhibitory Concentration (MIC), *E. cloacae Nek 39, lactamase-producing strain
Procedure, shortened: as §1

P. vulgaris HX-19 = assay: as above; assay type: cell-based; conditions: for MIC: Proteus vulgaris, HX19, 16 h, read-out: Minimum Inhibitory Concentration (MIC)
Procedure, shortened: as §1

E. cloacae 963 = assay: as above; assay type: cell-based; conditions: 10^6 CFU/ml
Procedure, shortened: as §1

K. pneumoniae PCI-602 = assay: as above; assay type: cell-based; conditions: Klebsiella pneumoniae, PCI602, 16 h, read-out: Minimum Inhibitory Concentration (MIC), K. pneumoniae PCI-602; 10^6 CFU/ml
Procedure, shortened: as §1

S. marcescens No. 16-2 = assay: as above; assay type: cell-based; conditions: Serratia marcescens, NO.162, 16 h
Procedure, shortened: as §1

S. aureus 209P NIHJ-JC1 = assay: as above; assay type: cell-based; conditions: Staphylococcus aureus, 16 h
Procedure, shortened: as §1

E. coli GN5482 = assay: as above; assay type: cell-based; conditions: Escherichia coli, GN5482, 16 h
Procedure, shortened: as §1

P. vulgaris No. 33 = assay: as above; assay type: cell-based; conditions: 10^6 CFU/ml; for Minimum Inhibitory Concentration (MIC): *P. vulgaris No. 33, lactamase-producing strain; for MIC: Proteus vulgaris, NO.33, 16 h, read-out: Minimum Inhibitory Concentration (MIC), *P. vulgaris No. 33, lactamase-producing strain
Procedure, shortened: as §1

M. morganii GN5407 = assay: as above; assay type: cell-based; conditions: 10^6 CFU/ml; for Minimum Inhibitory Concentration (MIC): *M. morganii GN5407, lactamase-producing strain; for MIC: Morganella morganii, GN5407, 16 h, read-out: Minimum Inhibitory Concentration (MIC), *M. morganii GN5407, lactamase-producing strain
Procedure, shortened: as §1

A. calcoaceticus No. 4 = assay: as above; assay type: cell-based, Acinetobacter calcoaceticus; conditions: Acinetobacter calcoaceticus, NO.4, 16 h, 10^6 CFU/ml
Procedure, shortened: as §1

Ps. aeruginosa AK 109 = assay: as above; assay type: cell-based, Pseudomonas aeruginosa; conditions: Pseudomonas aeruginosa, AK109, 16 h
Procedure, shortened: as §1

Ps. aeruginosa IF03445 = assay: as above; assay type: cell-based, Pseudomonas aeruginosa; conditions: 10^6 CFU/ml; for MIC: Pseudomonas aeruginosa, IF03445, 16 h, read-out: Minimum Inhibitory Concentration (MIC), Ps. aeruginosa IF03445
Procedure, shortened: as §1

Ps. aeruginosa AKR17 = assay: as above; assay type: cell-based, Pseudomonas aeruginosa; conditions: Pseudomonas aeruginosa
Procedure, shortened: as §1

[1] = Burkholderia cepacia, 16 h, Ps. cepacia 23, 10^6 CFU/ml
[2] = S. marcescens IAM 1184, 10^6 CFU/ml
[3] = Enterobacter cloacae, 963, 16 h, read-out: Minimum Inhibitory Concentration (MIC), E. cloacae 963
[4] = read-out: Minimum Inhibitory Concentration (MIC), *S. marcescens No. 16-2, lactamase-producing strain, 10^6 CFU/ml
[5] = read-out: Minimum Inhibitory Concentration (MIC)
[6] = A. calcoaceticus No. 4, read-out: Minimum Inhibitory Concentration (MIC)
[7] = Ps. aeruginosa AK 109, 10^6 CFU/ml, read-out: Minimum Inhibitory Concentration (MIC)
[8] = Enterobacter cloacae, 16 h, E. cloacae 963, read-out: Minimum Inhibitory Concentration (MIC)
[9] = read-out: Minimum Inhibitory Concentration (MIC), S. aureus 209P NIHJ-JC1, 10^6 CFU/ml, 37° C., 16 hours
[10] = read-out: Minimum Inhibitory Concentration (MIC), A. calcoaceticus No. 4
[11] = 16 h, Ps. aeruginosa AKR17, 10^6 CFU/ml, read-out: Minimum Inhibitory Concentration (MIC)

Row | SMILES | MIC (Ps. cepacia 23; [1]) | MIC (K. oxytoca GN10650) | MIC (S. marcescens IAM 1184; [2]) | MIC (K. pneumoniae No. 42) | MIC (E. coli NIHJ JC2) | MIC (E. cloacae Nek 39) | MIC (E. cloacae 963; [3]) | MIC (K. pneumoniae PCI-602) | MIC (S. marcescens No. 16-2; [4]) | MIC (S. aureus 209P NIHJ-JC1; [5]) | MIC (E. coli GN5482; [5]) | MIC (Ps. aeruginosa AK 109; [7]) | MIC (Ps. aeruginosa IF03445) | MIC (E. coli CSH(RE45)) | MIC (E. coli CSH2 (RK1)) | MIC (P. vulgaris No. 33) | MIC (M. morganii GN5407) | MIC (A. calcoaceticus No. 4; [10]) | MIC (Ps. aeruginosa AKR17; [11]) | MIC (P. vulgaris HX-19) | further results
1 | Nc1nc(/C(=N/OC(C(=O)O)c2ccccc2)C(=O)N[C@@H]2C(=O)N3C(C(=O)O)=C(CSc4nnc(-c5ccc(O)c(O)c5)o4)CS[C@H]23)cs1 (single isomer, unassigned) [Example 24 DA, disodium 78-[2-(2-aminothiazol-4-yl)-2-(α-carboxylatebenzyloxyimino)acetamido]-3-[5-(3,4-dihydroxyphenyl)-1,3,4-oxadiazol-2-yl]-thiomethyl-3-cephem-4-carboxylate] | < 0.006 µg/mL | 0.0125 µg/mL | 0.025 µg/mL | 0.0125 µg/mL | 0.2 µg/mL | 0.025 µg/mL | 0.05 µg/mL | < 0.006 µg/mL | 0.78 µg/mL | 12.5 µg/mL | 0.39 µg/mL | 0.1 µg/mL | 0.78 µg/mL | – | – | – | – | – | – | – | Minimum Inhibitory Concentration (MIC) (E. coli CSH(RE45)): < 0.006 µg/mL; Minimum Inhibitory Concentration (MIC) (E. coli CSH2 (RK1)): < 0.006 µg/mL; Minimum Inhibitory Concentration (MIC) (P. vulgaris HX-19; P. vulgaris HX-19, 10^6 CFU/ml): < 0.006 µg/mL; Minimum Inhibitory Concentration (MIC) (P. vulgaris No. 33): 0.0125 µg/mL; Minimum Inhibitory Concentration (MIC) (M. morganii GN5407): 0.025 µg/mL; MIC (A. calcoaceticus No. 4; [6]): 0.05 µg/mL; MIC (Ps. aeruginosa AKR17; AKR17, 16 h, read-out: Minimum Inhibitory Concentration (MIC), Ps. aeruginosa AKR17, 10^6 CFU/ml): 0.78 µg/mL
2 | CC(C)O/N=C(\C(=O)N[C@@H]1C(=O)N2C(C(=O)O)=C(CSc3nnc(-c4ccc(O)c(O)c4)o3)CS[C@H]12)c1csc(N)n1 [Ex. 7, sodium 78-[2-(2-aminothiazol-4-yl)-2-isopropoxyiminoacetamido]-3-[5-(3,4-dihydroxyphenyl)-1,3,4-oxadiazol-2-yl]thiomethyl-3-cephem-4-carboxylate] | < 0.006 µg/mL | 0.1 µg/mL | 0.025 µg/mL | 0.025 µg/mL | 0.1 µg/mL | 0.05 µg/mL | – | < 0.006 µg/mL | 1.56 µg/mL | – | 0.39 µg/mL | 0.2 µg/mL | 0.39 µg/mL | 1.56 µg/mL | < 0.006 µg/mL | 0.0125 µg/mL | 0.0125 µg/mL | 0.1 µg/mL | 50 µg/mL | – | MIC (P. vulgaris HX-19; P. vulgaris HX-19, 10^6 CFU/ml): < 0.006 µg/mL; MIC (E. cloacae 963; [8]): 0.0125 µg/mL; MIC (S. aureus 209P NIHJ-JC1; [9]): 1.56 µg/mL
3 | CCON=C(C(=O)N[C@@H]1C(=O)N2C(C(=O)[O-])=C(CSc3nc(-c4ccc(O)c(O)c4)cs3)CS[C@H]12)c1csc(N)n1.[Na+] [compound 48, sodium 7β-[2-(2-aminothiazol-4-yl)-2-ethoxyiminoacetamido]-3-[4-(3,4-dihydroxyphenyl)-thiazol-2-yl]thiomethyl-3-cephem-4-carboxylate] | – | 1.56 µg/mL | – | 0.05 µg/mL | 0.39 µg/mL | 0.78 µg/mL | 0.1 µg/mL | < 0.006 µg/mL | 6.25 µg/mL | 3.12 µg/mL | – | – | 1.56 µg/mL | 0.05 µg/mL | 0.025 µg/mL | 0.05 µg/mL | 0.1 µg/mL | 0.39 µg/mL | – | 0.0125 µg/mL | MIC (Ps. cepacia 23; Burkholderia cepacia, 23, 16 h): 0.1 µg/mL; MIC (S. marcescens IAM 1184): 0.1 µg/mL; MIC (E. coli GN5482; read-out: Minimum Inhibitory Concentration (MIC), *E. coli GN5482, lactamase-producing strain, 10^6 CFU/ml): 1.56 µg/mL; MIC (Ps. aeruginosa AK 109; [5]): 0.39 µg/mL; MIC (Ps. aeruginosa AKR17; AKR17, 16 h, read-out: Minimum Inhibitory Concentration (MIC)): 50 µg/mL
4 | CCO/N=C(\C(=O)N[C@@H]1C(=O)N2C(C(=O)O)=C(CSc3ncc(-c4ccc(OC(C)=O)c(OC(C)=O)c4)o3)CS[C@H]12)c1csc(N)n1 [compound 67, disodium 3-[5-(3,4-diacetoxyphenyl)-oxazol-2-yl]thiomethyl-7β-[2-(2-aminothiazol-4)-2-ethoxyiminoacetamido]-3-cephem-4-carboxylate] | 0.05 µg/mL | 1.56 µg/mL | 0.1 µg/mL | 0.1 µg/mL | 0.39 µg/mL | 0.39 µg/mL | – | < 0.006 µg/mL | 6.25 µg/mL | 3.12 µg/mL | 3.12 µg/mL | – | 1.56 µg/mL | 0.1 µg/mL | 0.0125 µg/mL | 0.025 µg/mL | 0.05 µg/mL | 0.39 µg/mL | 50 µg/mL | 0.0125 µg/mL | MIC (E. cloacae 963; [8]): 0.1 µg/mL; MIC (Ps. aeruginosa AK 109; read-out: Minimum Inhibitory Concentration (MIC), Ps. aeruginosa AK 109, 10^6 CFU/ml): 1.56 µg/mL
5 | Nc1nc(C(=NOC(C(=O)O)c2ccc(O)c(O)c2)C(=O)NC2C(=O)N3C(C(=O)O)=C(CSc4nnc(-c5ccc(O)c(O)c5)s4)CSC23)cs1 (single isomer, unassigned) [Example 38 DA, disodium 7β-{2-(2-aminothiazol-4-yl)-2-(α-carboxylate-3,4-dihydroxybenzyloxyimino)acetamido]-3-[5-(3,4-dihydroxyphenyl)-1,3,4-thiadiazol-2-yl]thiomethyl-3-cephem-4-carboxylate] | < 0.006 µg/mL | – | – | – | 0.2 µg/mL | – | 0.05 µg/mL | < 0.006 µg/mL | – | – | 0.2 µg/mL | 0.2 µg/mL | – | – | – | – | – | – | 0.1 µg/mL | 0.0125 µg/mL | Minimum Inhibitory Concentration (MIC) (E. coli CSH(RE45)): < 0.006 µg/mL; Minimum Inhibitory Concentration (MIC) (E. coli CSH2 (RK1)): < 0.006 µg/mL; Minimum Inhibitory Concentration (MIC) (K. oxytoca GN10650; *K. oxytoca GN10650, lactamase-producing strain): 0.025 µg/mL; Minimum Inhibitory Concentration (MIC) (S. marcescens IAM 1184; [2]): 0.025 µg/mL; Minimum Inhibitory Concentration (MIC) (K. pneumoniae No. 42; *K. pneumoniae No. 42, lactamase-producing strain): 0.0125 µg/mL; Minimum Inhibitory Concentration (MIC) (E. cloacae Nek 39; *E. cloacae Nek 39, lactamase-producing strain): 0.1 µg/mL; MIC (S. marcescens No. 16-2; [5]): 0.2 µg/mL; MIC (S. aureus 209P NIHJ-JC1; [9]): 0.78 µg/mL; Minimum Inhibitory Concentration (MIC) (P. vulgaris No. 33): 0.025 µg/mL; Minimum Inhibitory Concentration (MIC) (M. morganii GN5407): 0.05 µg/mL; MIC (A. calcoaceticus No. 4; [6]): 0.025 µg/mL; Minimum Inhibitory Concentration (MIC) (Ps. aeruginosa IF03445; Ps. aeruginosa IF03445): 0.39 µg/mL
